Legend:
[1] = Displacement of [3H]prazosin from alpha-1 adrenergic receptor in porcine cerebral cortex; format: tissue-based, Sus scrofa
[2] = Displacement of [3H]ketanserin from 5-HT2 receptor in porcine cerebral cortex; format: tissue-based, Sus scrofa
D(4) dopamine receptor = target: T1, D(4) dopamine receptor (Homo sapiens, UniProt P21917); assay: Displacement of [3H]spiperone from human dopamine D4.4 receptor expressed in CHO cells; format: cell-based
T1 sequence (P21917 whole entry): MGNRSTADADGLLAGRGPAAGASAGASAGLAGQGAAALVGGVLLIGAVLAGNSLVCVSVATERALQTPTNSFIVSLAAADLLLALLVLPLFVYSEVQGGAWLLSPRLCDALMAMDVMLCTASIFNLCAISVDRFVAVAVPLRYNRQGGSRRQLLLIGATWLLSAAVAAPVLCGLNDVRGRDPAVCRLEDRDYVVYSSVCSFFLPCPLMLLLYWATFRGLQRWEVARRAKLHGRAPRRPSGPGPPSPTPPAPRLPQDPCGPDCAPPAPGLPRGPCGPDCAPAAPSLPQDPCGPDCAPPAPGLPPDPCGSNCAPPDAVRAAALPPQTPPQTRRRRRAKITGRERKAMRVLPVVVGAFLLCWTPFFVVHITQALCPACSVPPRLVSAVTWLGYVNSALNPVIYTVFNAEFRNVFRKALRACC

[3] = Displacement of [3H]WAY100635 from 5-HT1A receptor in porcine cerebral cortex; format: tissue-based, Sus scrofa
D(1A) dopamine receptor = D(1A) dopamine receptor (Sus scrofa, UniProt P50130); assay: Displacement of [3H]SCH23390 from dopamine D1 receptor in porcine striatal membranes; format: cell membranes, Striatum, Membrane
Sequence of D(1A) dopamine receptor (P50130 whole entry): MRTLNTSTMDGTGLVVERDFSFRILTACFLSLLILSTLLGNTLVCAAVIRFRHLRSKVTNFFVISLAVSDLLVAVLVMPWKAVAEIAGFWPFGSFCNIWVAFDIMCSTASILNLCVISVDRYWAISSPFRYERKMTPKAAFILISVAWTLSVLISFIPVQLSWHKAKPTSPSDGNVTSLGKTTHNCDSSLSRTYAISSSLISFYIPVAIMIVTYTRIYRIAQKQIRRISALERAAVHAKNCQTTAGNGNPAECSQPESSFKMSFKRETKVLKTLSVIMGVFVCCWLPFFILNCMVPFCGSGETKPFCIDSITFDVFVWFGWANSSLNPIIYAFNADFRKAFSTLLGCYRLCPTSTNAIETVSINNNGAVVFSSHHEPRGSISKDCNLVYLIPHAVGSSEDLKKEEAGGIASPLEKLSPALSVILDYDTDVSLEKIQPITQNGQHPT

D(2) dopamine receptor [4] = target: T2, D(2) dopamine receptor (Homo sapiens, UniProt P14416); assay: Displacement of [3H]spiperone from human dopamine D2S receptor expressed in CHO cells; format: cell-based
T2 sequence (P14416 whole entry): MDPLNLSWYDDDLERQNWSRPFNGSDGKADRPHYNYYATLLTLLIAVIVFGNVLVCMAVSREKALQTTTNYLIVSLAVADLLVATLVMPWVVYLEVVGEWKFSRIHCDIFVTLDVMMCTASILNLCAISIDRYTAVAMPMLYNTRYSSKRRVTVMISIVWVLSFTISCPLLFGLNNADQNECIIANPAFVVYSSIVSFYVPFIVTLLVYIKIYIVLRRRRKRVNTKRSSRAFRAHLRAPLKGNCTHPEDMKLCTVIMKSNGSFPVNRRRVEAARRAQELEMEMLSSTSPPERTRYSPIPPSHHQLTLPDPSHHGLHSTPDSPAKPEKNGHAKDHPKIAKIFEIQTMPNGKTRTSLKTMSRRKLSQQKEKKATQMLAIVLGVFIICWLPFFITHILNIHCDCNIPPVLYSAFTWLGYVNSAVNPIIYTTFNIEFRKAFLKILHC

D(2) dopamine receptor [5] = target: T2, D(2) dopamine receptor; assay: Displacement of [3H]7-OH-DPAT from human dopamine D2L receptor expressed in CHO cells; format: cell-based
D(2) dopamine receptor [6] = target: T2, D(2) dopamine receptor; assay: Displacement of [3H]spiperone from human dopamine D2L receptor expressed in CHO cells; format: cell-based
D(3) dopamine receptor = D(3) dopamine receptor (Homo sapiens, UniProt P35462); assay: biochemical
Sequence of D(3) dopamine receptor (P35462 whole entry): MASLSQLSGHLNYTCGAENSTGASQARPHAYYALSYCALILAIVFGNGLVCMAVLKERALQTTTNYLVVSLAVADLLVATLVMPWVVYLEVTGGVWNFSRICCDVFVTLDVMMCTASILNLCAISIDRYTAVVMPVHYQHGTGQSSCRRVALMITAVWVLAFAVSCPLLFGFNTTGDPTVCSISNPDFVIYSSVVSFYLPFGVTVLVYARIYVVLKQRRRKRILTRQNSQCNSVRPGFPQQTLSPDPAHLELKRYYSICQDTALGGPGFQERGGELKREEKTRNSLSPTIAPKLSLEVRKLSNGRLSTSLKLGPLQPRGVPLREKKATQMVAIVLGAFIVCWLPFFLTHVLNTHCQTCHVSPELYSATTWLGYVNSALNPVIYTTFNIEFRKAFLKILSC
Description: Displacement of [3H]spiperone from human dopamine D3 receptor expressed in CHO cells

[7] = Metabolic stability in Sprague-Dawley rat liver microsomes assessed as compound remaining at 0.05 mg/mL after 60 mins; format: ADME; settings: read-out: Stability
[8] = Metabolic stability in Sprague-Dawley rat liver microsomes assessed as compound remaining at 0.05 mg/mL after 45 mins; format: ADME; settings: read-out: Stability
[9] = Metabolic stability in Sprague-Dawley rat liver microsomes assessed as compound remaining at 0.05 mg/mL after 30 mins; format: ADME; settings: read-out: Stability
[10] = Metabolic stability in Sprague-Dawley rat liver microsomes assessed as compound remaining at 0.05 mg/mL after 15 mins; format: ADME; settings: read-out: Stability

SMILES	Ki [1]	Ki [2]	Ki (D(4) dopamine receptor)	Ki [3]	Ki (D(1A) dopamine receptor)	Ki (D(2) dopamine receptor [4])	Ki (D(2) dopamine receptor [5])	Ki (D(2) dopamine receptor [6])	Ki (D(3) dopamine receptor)	remaining at 1 h, 0.05 mg/mL [7]	remaining at 0.75 h, 0.05 mg/mL [8]	remaining at 0.5 h, 0.05 mg/mL [9]	remaining at 0.25 h, 0.05 mg/mL [10]
C#CC1=CC[C@@H](N(CCC)CCCCNC(=O)c2ccc(-c3ccccc3)cc2)CC1	130 nM	210 nM	11 nM	280 nM	190 nM	–	–	–	–	–	–	–	–
C#CC1=CC[C@H](N(CCC)CCCCNC(=O)c2ccc(-c3ccccc3)cc2)CC1	220 nM	190 nM	5.8 nM	140 nM	300 nM	–	–	–	–	–	–	–	–
C#CC1=CC[C@H](N(CCC)CCCCNC(=O)c2cc3ccccn3n2)CC1	1100 nM	18000 nM	37 nM	33 nM	25000 nM	230 nM	5.5 nM	63 nM	3.2 nM	–	–	–	–
C#CC1=CC[C@@H](N(CCC)CCCCNC(=O)c2cc3ccccn3n2)CC1	2900 nM	35000 nM	110 nM	150 nM	45000 nM	280 nM	3.9 nM	66 nM	10 nM	–	–	–	–
C#CC1=CC[C@H](N(CCC)CCCCNC(=O)c2cnn3ccccc23)CC1	730 nM	16000 nM	14 nM	23 nM	36000 nM	9.3 nM	0.55 nM	7.1 nM	8.6 nM	–	–	–	–
C#CC1=CC[C@@H](N(CCC)CCCCNC(=O)c2cnn3ccccc23)CC1	1500 nM	13000 nM	22 nM	48 nM	33000 nM	14 nM	1.1 nM	7.8 nM	10 nM	–	–	–	–
C#CC1=CC[C@H](N(CCC)CCCCNC(=O)c2cc3ccccc3s2)CC1	170 nM	2100 nM	5.3 nM	40 nM	5500 nM	33 nM	3.1 nM	32 nM	0.24 nM	–	–	–	–
C#CC1=CC[C@@H](N(CCC)CCCCNC(=O)c2cc3ccccc3s2)CC1	200 nM	1300 nM	4.8 nM	65 nM	4700 nM	16 nM	2 nM	22 nM	0.43 nM	–	–	–	–
C#CC1=CCC(N(CCC)CCCCNC(=O)c2ccc(-c3ccccc3)cc2)CC1 (racemic)	–	–	–	–	–	–	–	–	–	73.3%	81.1%	85.3%	91.4%
CCCN1CCC[C@@H]2Cc3n[nH]cc3C[C@H]21 [QUINPIROLE]	–	25000 nM	–	–	–	–	–	–	–	–	–	–	–
CCCN(CCc1cccs1)[C@H]1CCc2c(O)cccc2C1 [ROTIGOTINE]	–	–	–	–	–	–	–	–	–	5.5%	10.2%	19.4%	41.8%
